According to US5414008A, “Imidazolyl-substituted phenylpropionic and cinnamic acid derivatives” (Bayer Aktiengesellschaft, priority 1992, dated 1995):

Tests used:
smooth muscle cells = assay: Inhibition of the proliferation of smooth muscle cells (3H-thymidine incorporation); assay type: cell-based; settings: Sus scrofa, 10^-6 M, smooth muscle cells from pig aortas
Description: To determine the antiproliferative action of the compounds, smooth muscle cells are used which are obtained from aortas of pigs by the media explant technique [R.Ross, J. Cell. Biol. 50, 172, 1971]. The cells are inoculated into suitable culture dishes, as a rule 96-hole plates, and cultured in 5% CO2 at 37° C. for 2-3 days in medium 199 containing 7.5% FCS and 7.5% NCS, 2 mmol L-glutamine and 15 mmol HEPES, pH 7.4. The cells are then synchronised by withdrawal of serum for 2-3 days and then stimulated into growth with serum or other factors. Test compounds are simultaneously added. After 16-20 hours, 1 μCi ^3 H-thymidine is added and after a further 4 hours the incorporation of this substance into the TCA-precipitatable DNA of the cells is determined.
To determine the IC50 values, the active compound concentration is calculated which on sequential dilution of the active compound causes half-maximal inhibition of the thymidine incorporation produced by 1% FCS.

[1] = test system: isolated rabbit aorta rings, contraction induced by angiotensin II; assay: Inhibition of vascular contraction induced by angiotensin II (AII) in isolated rabbit aorta rings in vitro; settings: based on 3rd = submaximal agonist concentration, read-out: IC50 against contractions induced by AII
Description: Rabbits of either sex are stunned by a blow to the back of the head and bled out, or in some cases anaesthetized with Nembutal (about 60-80 mg/kg i.v.) and sacrificed by opening the thorax. The thorax aorta is removed, freed from adhering connective tissue, divided into ring segments 1.5 mm wide and individually transferred under an initial loading of about 3.5 g to 10 ml organ baths containing Krebs-Henseleit nutrient solution, which is temperature-controlled at 37° C. and aerated with 95% 02/5 % CO2, of the following composition: 119 mmol/l of NaCl; 2.5mmol/l of CaCl2 ×2H2 O; 1.2 mmol/1 of KH2 PO4; 10mmol/l of glucose; 4.8 mmol/l of KCl; 1.4 mmol/l of MgSO4 ×H2 O and 25 mmol/1 of NaHCO3.
The contractions are detected isometrically by Statham UC2 cells by means of bridge amplifiers (ifd Milheim or DSM Aalen) and digitalised and assessed by means of A/D converters (System 570, Keithley Munich). Agonist dose response curves (DRC) are plotted hourly. With each DRC, 3 or 4 individual concentrations are applied to the baths at a 4 min interval. After the end of the DRC and subsequent washing-out cycles (16 times in each case about 5 sec/min with the abovementioned nutrient solution), a 28-minute rest or incubation phase follows, during which the contractions as a rule reach the staring value again.
The height of the 3rd DRC, in a normal case, is used as a reference variable for the assessment of the test substance to be investigated in further runs, which is applied to the baths in the following DRCs in increasing doses in each case at the start of the incubation period. Each aorta ring is in this case stimulated for the whole day, always with the same agonist.
For the calculation of the IC50 (concentration at which the substance to be investigated causes a 50% inhibition), the effect is in each case based on the 3rd =submaximal agonist concentration.

angiotensin II receptor = target: T1, angiotensin II receptor (Bos taurus, UniProt P25104); assay: Angiotensin II receptor binding (3H-angiotensin II) in membrane fractions of bovine adrenal gland cortex; settings: bovine adrenal gland cortex membranes, 3H-angiotensin II 3-5 nM, 60 min, room temperature
T1 construct: Bovine adrenal gland cortices (AGC), which have been freshly removed and carefully freed from gland medulla; from tissue; host or cells: bovine adrenal gland cortex, partially purified membrane fractions
T1 sequence (P25104 1-359): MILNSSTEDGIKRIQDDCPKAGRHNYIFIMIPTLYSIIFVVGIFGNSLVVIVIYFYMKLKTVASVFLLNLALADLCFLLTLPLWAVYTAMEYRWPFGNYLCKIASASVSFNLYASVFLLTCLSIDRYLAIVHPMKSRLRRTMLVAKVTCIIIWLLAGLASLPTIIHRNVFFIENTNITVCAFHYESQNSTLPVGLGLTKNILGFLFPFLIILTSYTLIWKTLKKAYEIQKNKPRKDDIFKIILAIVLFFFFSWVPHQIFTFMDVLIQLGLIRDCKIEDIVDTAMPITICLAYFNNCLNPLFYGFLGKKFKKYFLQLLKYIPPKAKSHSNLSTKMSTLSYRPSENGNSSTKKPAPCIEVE
Description: Bovine adrenal gland cortices (AGC), which have been freshly removed and carefully freed from gland medulla, are comminuted in sucrose solution (0.32 M) with the aid of an Ultra-Turrax (Janke & Kunkel, Staufen i.B.) to give a coarse membrane homogenate and partially purified in two centrifugation steps to give membrane fractions. The receptor binding investigations are carried out on partially purified membrane fractions of bovine AGC using radioactive angiotensin II in an assay volume of 0.25 ml, which specifically contains the partially purified membranes (50-80 μg), ^3 H-angiotensin II .(3-5 nM), test buffer solution (50 mMTris, pH 7.2, 5 mM MgCl2) and the substances to be investigated. After an incubation time of 60 min at room temperature, the unbound radioactivity of the samples is separated by means of moistened glass fibre filters (Whatman GF/C) and the bound radioactivity is measured […] in a scintillation cocktail after washing the protein with ice-cold buffer solution (50 mM Tris/HCl, pH 7.4, 5% PEG 6000). The analysis of the raw data was carried out using computer programs to give Ki or IC50 values (Ki : IC50 values corrected for the radioactivity used; IC50 values: concentration at which the substance to be investigated causes a 50% inhibition of the specific binding of the radioligand).

Structure (SMILES) | IC50 [1] [nM] | Ki (angiotensin II receptor) [nM] | inhibition at 1 µM (smooth muscle cells) [%]
CCCCc1nc(Cl)c(CO)n1Cc1ccc(C(CC(=O)OC(C)(C)C)c2ccccc2)cc1 (centres unmarked) [Example 18] | – | – | 90
CCCCc1nc(Cl)c(CO)n1Cc1ccc(C(=CC(=O)NC(CO)c2ccccc2)c2ccccc2)cc1 (centres unmarked) [Example 20] | 360 | – | –
CCCCc1nc(Cl)c(C=O)n1Cc1ccc(/C(=C/C(=O)NS(=O)(=O)c2ccc(C)cc2)c2ccccc2)cc1 [Example 39] | – | – | 59
CCCCc1nc(Cl)c(C=O)n1Cc1ccc(/C(=C\C(=O)NS(=O)(=O)c2ccc(C)cc2)c2ccccc2)cc1 [Example 40] | – | – | 57

Second part, led by results:

IC50 [1] [nM] | Ki (angiotensin II receptor) [nM] | Structure (SMILES) | inhibition at 1 µM (smooth muscle cells) [%]
580 | 340 | CCCCc1nc(Cl)c(CO)n1Cc1ccc(/C(=C\C(=O)O)c2ccccc2)cc1 [Example 30] | –
360 | 310 | CCCCc1nc(Cl)c(C=O)n1Cc1ccc(/C(=C/C(=O)O)c2ccccc2)cc1 [Example 31] | –
650 | – | CCCCc1nc(Cl)c(C=O)n1Cc1ccc(C(CC(=O)O)c2ccccc2)cc1 (centres unmarked) [Example 35] | –
– | 150 | CCCCc1nc(Cl)c(CO)n1Cc1ccc(C(CC(=O)O)c2ccccc2)cc1 (centres unmarked) [Example 36] | –
– | 190 | CCCCc1nc(Cl)c(C=O)n1Cc1ccc(C(CC(=O)O)C2CCCC2)cc1 (centres unmarked) [Example 37] | –
